Data set [1] can be described thus: Plasma clearance of compound in rats was evaluated. The class given is ADME, organism-based. The conditions noted are these: rat, read-out: Clp.
A short description of data set [2]: Bioavailability in rat (dose 1 mg/kg i.v. and 2 mg/kg p.o.). It counts as ADME, organism-based. The conditions noted are these: in vivo, po.
Data set [3] is described as follows: Partition coefficient (logD). It counts as physicochemical. Particulars: octanol/water.
Another data set addresses T1, Integrin alpha-4/beta-7 (Homo sapiens, UniProt P13612+P26010).
T1 sequence (P13612 whole entry): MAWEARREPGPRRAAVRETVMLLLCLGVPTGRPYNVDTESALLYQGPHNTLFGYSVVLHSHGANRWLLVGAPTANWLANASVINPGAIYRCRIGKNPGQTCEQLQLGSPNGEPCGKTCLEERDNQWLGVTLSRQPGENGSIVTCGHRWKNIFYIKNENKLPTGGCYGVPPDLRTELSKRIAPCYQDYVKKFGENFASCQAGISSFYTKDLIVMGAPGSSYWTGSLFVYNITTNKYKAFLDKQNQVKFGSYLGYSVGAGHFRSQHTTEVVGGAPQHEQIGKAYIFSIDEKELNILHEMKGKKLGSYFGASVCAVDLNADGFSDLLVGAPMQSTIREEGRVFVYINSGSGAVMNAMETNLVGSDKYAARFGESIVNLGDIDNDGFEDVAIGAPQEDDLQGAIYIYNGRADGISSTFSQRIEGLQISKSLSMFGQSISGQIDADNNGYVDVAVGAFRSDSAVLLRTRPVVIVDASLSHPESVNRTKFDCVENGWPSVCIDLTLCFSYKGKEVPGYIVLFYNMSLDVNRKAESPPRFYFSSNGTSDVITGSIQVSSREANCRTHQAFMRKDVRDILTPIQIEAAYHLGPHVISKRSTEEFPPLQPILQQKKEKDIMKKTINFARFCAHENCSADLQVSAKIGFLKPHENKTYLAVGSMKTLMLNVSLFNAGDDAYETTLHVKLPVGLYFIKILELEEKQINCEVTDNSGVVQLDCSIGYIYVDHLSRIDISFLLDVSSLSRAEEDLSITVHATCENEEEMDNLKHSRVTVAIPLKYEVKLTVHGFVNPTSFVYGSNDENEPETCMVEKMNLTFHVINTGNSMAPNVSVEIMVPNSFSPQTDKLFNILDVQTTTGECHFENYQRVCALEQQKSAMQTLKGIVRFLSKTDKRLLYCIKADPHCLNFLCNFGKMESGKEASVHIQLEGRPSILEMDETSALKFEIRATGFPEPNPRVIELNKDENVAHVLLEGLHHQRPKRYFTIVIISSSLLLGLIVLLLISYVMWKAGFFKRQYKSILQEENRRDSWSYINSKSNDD
T1 sequence (P26010 whole entry): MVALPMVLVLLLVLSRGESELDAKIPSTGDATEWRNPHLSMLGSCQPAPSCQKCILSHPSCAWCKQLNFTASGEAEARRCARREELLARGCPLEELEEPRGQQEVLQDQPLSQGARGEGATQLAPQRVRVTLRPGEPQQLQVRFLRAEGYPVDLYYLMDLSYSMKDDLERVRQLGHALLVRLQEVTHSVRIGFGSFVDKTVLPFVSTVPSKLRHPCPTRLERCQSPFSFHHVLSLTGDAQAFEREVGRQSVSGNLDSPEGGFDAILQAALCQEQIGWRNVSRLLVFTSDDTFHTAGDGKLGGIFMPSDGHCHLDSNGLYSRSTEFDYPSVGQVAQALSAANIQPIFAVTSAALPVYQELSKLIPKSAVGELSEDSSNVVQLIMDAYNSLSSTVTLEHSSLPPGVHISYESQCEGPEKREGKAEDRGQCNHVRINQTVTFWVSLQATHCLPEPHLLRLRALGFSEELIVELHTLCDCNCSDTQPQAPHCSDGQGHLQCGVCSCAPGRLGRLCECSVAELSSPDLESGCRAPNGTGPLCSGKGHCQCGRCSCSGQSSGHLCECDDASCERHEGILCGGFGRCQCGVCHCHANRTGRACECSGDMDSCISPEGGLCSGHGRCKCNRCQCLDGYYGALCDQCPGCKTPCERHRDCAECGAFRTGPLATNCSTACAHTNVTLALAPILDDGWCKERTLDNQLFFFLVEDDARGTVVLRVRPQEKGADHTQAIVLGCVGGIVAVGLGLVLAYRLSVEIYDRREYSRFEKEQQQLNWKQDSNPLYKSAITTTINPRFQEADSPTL
The data set is described as follows: Inhibitory activity of compound against alpha4-beta7 integrin using MAdCAM-Ig ligand. It counts as protein-complex assay.

Data set [4] is described as follows: Dissociation constant was evaluated. It counts as physicochemical.
Data set [5] in a line: Inhibitory activity of compound against very late antigen 4 using VCAM-Ig ligand. Further details: species or system Rattus norvegicus.
Data set [6] deals with Integrin alpha-4/beta-1 (Homo sapiens) (UniProt P05556+P13612). The data set is described as follows: Inhibition of VCAM-Ig binding to very late activating antigen-4 (VLA-4) at 10 uM. The class given is protein-complex assay.

Here are results for 22 compounds from ChEMBL document CHEMBL1148235, “Amidines as amide bond replacements in VLA-4 antagonists” (Bioorg Med Chem Lett, 2004).

Molecules are shown by their SMILES.

With `CON/C(=N\[C@@H](Cc1ccc(-c2c(OC)cccc2OC)cc1)C(=O)O)[C@@H]1CCN1S(=O)(=O)c1ccccc1`, the clearance in data set [1] is 79 mL/min/kg. Further, the bioavailability (usually dose-corrected exposure relative to a reference, in per cent) in data set [2] was 9.3%. In addition, the logD – broadly, lipophilicity at a set pH, counting ionised and neutral species – in data set [3] came out at 2.8. In addition, the IC50 (usually the concentration that gives 50% inhibition) on Integrin alpha-4/beta-7 turned out to be 35 nM; in data set [5], 0.17 nM. Further, the pKa – broadly, the negative logarithm of the acid dissociation constant – in data set [4] is below 4.

Turning to `COc1cccc(OC)c1-c1ccc(C[C@H](/N=C(\N)[C@@H]2CCN2S(=O)(=O)c2cc(Cl)cc(Cl)c2)C(=O)O)cc1`, in data set [1], the clearance amounted to 90 mL/min/kg. The compound also came in with a bioavailability in data set [2] of 0.3%. For the same compound, in data set [3], the logD amounted to 4.1. For the same compound, the IC50 on Integrin alpha-4/beta-7 turned out to be 16 nM; in data set [5], 0.05 nM.

In the case of `COc1cccc(OC)c1-c1ccc(C[C@@H]2/N=C(/[C@@H]3CCN3S(=O)(=O)c3ccccc3)NCc3nccn3C2=O)cc1`, in data set [1], the clearance came to 382 mL/min/kg. In data set [2], this compound showed a bioavailability of 0.6%. This compound showed an IC50 against Integrin alpha-4/beta-7 of 4090 nM. The inhibition (usually the relative decrease from the control value, in per cent) in data set [6] amounted to 85%.

As for `COc1cccc(OC)c1-c1ccc(C[C@H](NC(=O)[C@@H]2CCN2S(=O)(=O)c2cc(Cl)cc(Cl)c2)C(=O)O)cc1`, in data set [1], the clearance was determined as 102 mL/min/kg. For the same compound, the logD in data set [3] was found to be 4. The IC50 in data set [5] came to 0.08 nM.

For `CN/C(=N\[C@@H](Cc1ccc(-c2c(OC)cccc2OC)cc1)C(=O)O)[C@@H]1CCN1S(=O)(=O)c1cc(Cl)cc(Cl)c1`, in data set [1], the clearance was determined as 85 mL/min/kg. In data set [2], this compound registered a bioavailability of 0.8%. Besides, the logD in data set [3] worked out at 2.7. For the same compound, the values for the IC50 (against Integrin alpha-4/beta-7; in data set [5]) were 21 nM and 0.05 nM, respectively. In data set [4], this compound registered a pKa of 10.2.

On to `COc1cccc(OC)c1-c1ccc(C[C@H](/N=C(\N)[C@@H]2CCN2S(=O)(=O)c2ccccc2)C(=O)O)cc1`, for which the clearance in data set [1] amounted to 61 mL/min/kg. This compound showed a bioavailability in data set [2] of 0.2%. For the same compound, the IC50 on Integrin alpha-4/beta-7 was determined as 19 nM; in data set [5], 0.1 nM.

Consider `COc1cccc(OC)c1-c1ccc(C[C@H](OC(=O)[C@@H]2CCN2S(=O)(=O)c2cc(Cl)cc(Cl)c2)C(=O)O)cc1`, for which the IC50 on Integrin alpha-4/beta-7 was found to be 3000 nM; in data set [5] it was 15 nM.

`COc1cccc(OC)c1-c1ccc(C[C@H](/N=C(\NCC(=O)O)[C@@H]2CCN2S(=O)(=O)c2ccccc2)C(=O)O)cc1` returned a logD in data set [3] of 1.9. Further, the IC50 on Integrin alpha-4/beta-7 was 78 nM; in data set [5] it was 0.17 nM.

`COc1cccc(OC)c1-c1ccc(C[C@H](/N=C(\NCc2ccccn2)[C@@H]2CCN2S(=O)(=O)c2ccccc2)C(=O)O)cc1`: the logD in data set [3] turned out to be 2.8. Moreover, the IC50 against Integrin alpha-4/beta-7 came out at 35 nM; in data set [5] it was 0.15 nM.

On to `COc1cccc(OC)c1-c1ccc(C[C@@H]2N=C([C@@H]3CCN3S(=O)(=O)c3ccccc3)NNC2=O)cc1`, for which, in data set [1], the clearance was 86 mL/min/kg. Also, the bioavailability in data set [2] worked out at 3.3%. The same compound yielded a logD in data set [3] of 3.2. For the same compound, the IC50 in data set [5] worked out at 58 nM.

As to `COc1cccc(OC)c1-c1ccc(C[C@@H](C(=O)O)N(C)C(=O)[C@@H]2CCN2S(=O)(=O)c2cc(Cl)cc(Cl)c2)cc1`, the IC50 in data set [5] worked out at 350 nM.

As to `COc1cccc(OC)c1-c1ccc(C[C@H](NC(=O)[C@]2(C)CCN2S(=O)(=O)c2cc(Cl)cc(Cl)c2)C(=O)O)cc1`, the clearance in data set [1] stood at 110 mL/min/kg. Inhibition in data set [5] was half-maximal at 0.07 nM (IC50).

On to `COc1cccc(OC)c1-c1ccc(C[C@H](/N=C(\NS(C)(=O)=O)[C@@H]2CCN2S(=O)(=O)c2ccccc2)C(=O)O)cc1`, for which the clearance in data set [1] turned out to be 103 mL/min/kg. The compound further displayed a bioavailability in data set [2] of 1.6%. In data set [3], the logD was 2.4. Further, the IC50 on Integrin alpha-4/beta-7 amounted to 2.2 nM; in data set [5] it was 0.07 nM. In data set [4], this compound gave a pKa of -2.

As for `COc1cccc(OC)c1-c1ccc(C[C@H](/N=C(\NCC2CCOOCC2)[C@@H]2CCN2S(=O)(=O)c2ccccc2)C(=O)O)cc1`, the clearance in data set [1] is 67 mL/min/kg. The bioavailability in data set [2] was 0.6%. Also, the logD in data set [3] was determined as 2.6. The IC50 against Integrin alpha-4/beta-7 came out at 43 nM; in data set [5] it was 0.28 nM.

With `COc1cccc(OC)c1-c1ccc(C[C@H](/N=C(\NCC(C)(C)C)[C@@H]2CCN2S(=O)(=O)c2ccccc2)C(=O)O)cc1`, in data set [1], the clearance came out at 64 mL/min/kg. The compound also came in with a bioavailability in data set [2] of 0%. Moreover, the logD in data set [3] stood at 3.7. The IC50 amounted to 120 nM against Integrin alpha-4/beta-7 and 0.21 nM in data set [5].

`COc1cccc(OC)c1-c1ccc(C[C@H](/N=C(\NO)[C@@H]2CCN2S(=O)(=O)c2ccccc2)C(=O)O)cc1` showed a logD in data set [3] of 2.3. Besides, the IC50 against Integrin alpha-4/beta-7 was determined as 98 nM; in data set [5], 0.14 nM.

On to `CN/C(=N\[C@@H](Cc1ccc(-c2c(OC)cccc2OC)cc1)C(=O)O)[C@@H]1CCN1S(=O)(=O)c1ccccc1`, for which the clearance in data set [1] came to 81 mL/min/kg. The same compound had a bioavailability in data set [2] of 0.7%. The same compound yielded a logD in data set [3] of 2.4. Further, the IC50 came to 40 nM on Integrin alpha-4/beta-7 and 0.12 nM in data set [5]. In data set [4], this compound showed a pKa of 10.5.

Consider `COc1cccc(OC)c1-c1ccc(C[C@H](NC(=O)[C@@H]2CCN2S(=O)(=O)c2ccccc2)C(=O)O)cc1`, for which, in data set [1], the clearance came out at 107 mL/min/kg. The compound also registered a bioavailability in data set [2] of 1.4%. The same compound displayed a logD in data set [3] of 2.6. The IC50 against Integrin alpha-4/beta-7 is 78 nM; in data set [5], 0.1 nM.

Take `COc1cccc(OC)c1-c1ccc(C[C@H](/N=C(\NC#N)[C@@H]2CCN2S(=O)(=O)c2ccccc2)C(=O)O)cc1`: the clearance in data set [1] amounted to 93 mL/min/kg. The bioavailability in data set [2] worked out at 3%. In data set [3], this compound yielded a logD of 2.5. The IC50 was 4.1 nM on Integrin alpha-4/beta-7 and 0.09 nM in data set [5]. Also, the pKa in data set [4] was -2.

On to `COCCN/C(=N\[C@@H](Cc1ccc(-c2c(OC)cccc2OC)cc1)C(=O)O)[C@@H]1CCN1S(=O)(=O)c1ccccc1`, for which the clearance in data set [1] is 81 mL/min/kg. The compound further returned a bioavailability in data set [2] of 0%. For the same compound, the IC50 turned out to be 65 nM against Integrin alpha-4/beta-7 and 0.28 nM in data set [5].

`COc1cccc(OC)c1-c1ccc(C[C@H](NC[C@@H]2CCCN2S(=O)(=O)c2cc(Cl)cc(Cl)c2)C(=O)O)cc1`: the figures for the IC50 (against Integrin alpha-4/beta-7; in data set [5]) were 8400 nM and 140 nM, respectively.

Regarding `COc1cccc(OC)c1-c1ccc(C[C@H](/N=C(\NCC(F)(F)F)[C@@H]2CCN2S(=O)(=O)c2ccccc2)C(=O)O)cc1`, the clearance in data set [1] was 45 mL/min/kg. Moreover, in data set [2], the bioavailability was found to be 1.8%. In data set [3], this compound displayed a logD of 3.3. Further, the results for the IC50 (at Integrin alpha-4/beta-7; in data set [5]) were 27 nM and 0.13 nM, respectively.
